This passage reports EC50, IC50 and outcome results from PubChem BioAssay AID179 (DTP/NCI, 2004).

Where “and” joins values, the source holds several entries; their conditions need not be identical. Identical values can stand only once. Calls of active or inactive are those of the source.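 How the source made its calls: active means compounds giving half or more protection of infected cells from virus-caused growth loss, again on retest; inactive means the rest.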 Bounds are passed on as bounds.

What is called EC50 is the concentration that produces a half-maximal response. Broadly, the IC50 is the concentration that inhibits the measured activity by half. Lower therefore signals greater potency in that assay.

This assay has as its system CEM cells HIV-1 protection, formazan growth assay. Description: NCI AIDS Antiviral Assay. To be noted: for IC50: measured here: growth of uninfected CEM cells. A digest of the protocol: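 Human CEM cells, uninfected and HIV-1-infected, received five drug concentrations, and growth was read by soluble formazan assay. Compounds giving at least 50% protection were retested; reproducible 100% protection defined confirmed active.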

For the compound `CC1CC(c2ccc(Cl)cc2)=Nc2ccccc2S1` (centres undefined), the EC50 is over 6.92 µM and the IC50 was over 6.92 µM.

In the case of `CCCCCCCCCc1cc(=O)c2ccc(OCc3ccccc3)cc2o1`, the EC50 is over 2.75 µM and the IC50 was over 2.75 µM.

As for `N#C/C(=C/c1ccc([N+](=O)[O-])o1)c1ccccc1`, the EC50 was over 1050 µM and the 50% inhibitory concentration (IC50) stood at 61.7 µM.

Regarding `CS(=O)(=O)C(=Cc1ccccc1Cl)S(C)(=O)=O`, the outcome was inactive.

Regarding `COc1ccc(N=c2ssc3c(=S)ssc23)cc1`, the outcome was inactive.

For `CCO[C@H]1CC(C)C2[C@H](CC3(C)C4CC(OC(C)=O)C5C(C)(C)[C@@H](OC6OCC(O)C(O)C6O)CC[C@@]56C[C@@]46CC[C@]23C)O1` (some centres undefined), the EC50 was over 41.7 µM and the IC50 was over 41.7 µM.

As for `c1ccc2sc(CN(Cc3nc4ccccc4s3)Cc3nc4ccccc4s3)nc2c1`, the EC50 is over 40.7 µM and the IC50 was over 40.7 µM.

Regarding `CCOC(=O)/C=C/n1cc(C)c(=O)[nH]c1=O`, the EC50 is over 224 µM and the IC50 was found to be 117 µM.

Regarding `CC(=O)Oc1cc(OC(C)=O)c2c(=O)c(OC(C)=O)c(-c3ccc(OC(C)=O)c(OC(C)=O)c3)oc2c1`, the EC50 is over 200 µM and the 50% inhibitory concentration (IC50) was determined as 9.33 µM.

For `O=S(Nc1ccccc1)c1ccc(N2CCOCC2)cc1` (centres undefined), the EC50 is over 200 µM and the half-inhibitory concentration (IC50) was 18.2 µM.

In the case of `CN(c1ccccc1)c1cc2ccccc2nn1`, the EC50 is over 200 µM and the IC50 turned out to be 93.3 µM.

On to `CCOC(=O)c1cc(Cl)cc2c(=O)c3c(O)c4[nH]c5c(C(=O)OCC)cc(Cl)cc5c(=O)c4c(O)c3[nH]c12`, for which the EC50 is over 100 µM and the half-inhibitory concentration (IC50) was 4.9 µM.

As for `O=c1c2c(nc3n1CCC3)sc1c(O)c(Br)ccc12`, the EC50 is over 200 µM and the IC50 was determined as 11 µM.

For the compound `O=C(/C=C/c1ccc(Cl)c(Cl)c1)c1cccc2ccccc12`, the EC50 is over 3.16 µM and the IC50 was over 3.16 µM.

Turning to `Cc1cc(O)c(C(C)(C)C)cc1Sc1cc(C(C)(C)C)c(O)cc1C`, the EC50 is over 200 µM and the 50% inhibitory concentration (IC50) was determined as 6.46 µM.

Take `Oc1c(Br)cc(Br)cc1/C=C/NC(=S)NC1CC2CC1C1C=CCC21` (centres undefined): the EC50 is over 200 µM and the concentration for half-maximal inhibition (IC50) worked out at 3.02 µM.

On to `c1ccc2c(c1)OCCOCCOc1ccccc1OCCO2`, for which the EC50 was over 295 µM and the IC50 was 74.1 µM.

For the compound `Oc1cccc2c(Cl)ccnc12`, the EC50 was over 20 µM and the IC50 came to 1.58 µM.

Take `N#Cc1cccc(N2C(=O)C3C4C=CC(C3C2=O)C2C(=O)N(c3cccc(C#N)c3)C(=O)C42)c1` (centres undefined): the result was inactive.

As to `O=[N+]([O-])c1cccc[c]1[Sb](=[O])([OH])[c]1ccccc1[N+](=O)[O-]`, the 50% effective concentration (EC50) is over 200 µM and the IC50 amounted to 25.1 µM.

Take `O=C(CCc1cccc(O)c1)NCCc1ccc(O)cc1`: the EC50 is 123 µM and the IC50 is over 200 µM.

Consider `Cc1cc(Cl)nc2nc(Cl)c(N)cc12`, for which the result was inactive.

Turning to `O=C1OCCN1CCO`, the EC50 was over 200 µM and the IC50 is over 200 µM.

In the case of `[N-]=[N+]=NC1(c2ccccc2)C(=O)Nc2ccccc2C1=O` (centres undefined), the EC50 was over 58.9 µM and the IC50 worked out at 30.2 µM.

As to `COc1cc(=O)oc2c3c(ccc12)OC(C)(C)[C@H](OC(=O)C12CCC(C)(C(=O)O1)C2(C)C)[C@@H]3OC(=O)C12CCC(C)(C(=O)O1)C2(C)C` (some centres undefined), the EC50 is 0.257 µM and the IC50 stood at 51.3 µM.

For the compound `COC(=O)/C=C/c1ccc(OP(=O)(O)O)c(OC)c1`, the EC50 is over 200 µM and the IC50 was over 200 µM.

Take `Cc1cc(C)nc(NS(=O)(=O)c2ccc(Nc3c4ccccc4nc4c(C(=O)N5CCN(CCO)CC5)ccc(Cl)c34)cc2)n1`: the EC50 is over 34.7 µM and the IC50 is over 34.7 µM.

Turning to `CC(C)(C)c1ccc(-c2nc3ccc(Cl)cc3c(=O)o2)cc1`, the EC50 is over 200 µM and the IC50 was found to be 9.33 µM.

As to `O=C1N[C@H]2[C@H](CS[C@H]2CCCCC(=O)N(CCP(c2ccccc2)c2ccccc2)CCP(c2ccccc2)c2ccccc2)N1`, the EC50 was over 14.8 µM and the IC50 was over 14.8 µM.

`CC1(O)[C@@H]2O[C@@H]2C2(CCCO2)[C@@H]2O[C@@H]21` (some centres undefined): the EC50 was over 200 µM and the IC50 was over 200 µM.

With `CN(C)c1ccc(C=Nc2ccc(S(N)(=O)=O)cc2)cc1`, the EC50 was over 200 µM and the 50% inhibitory concentration (IC50) is over 200 µM.

As to `O=C(Nc1sccc1S(=O)(=O)c1ccccc1)c1cccnc1`, the EC50 was over 200 µM and the IC50 was 4.47 µM.

As to `Brc1ccc(-c2nc(-c3ccc(Br)cc3)n(-c3ccccc3)n2)cc1`, the EC50 is over 200 µM and the half-maximal inhibitory concentration (IC50) came to 93.3 µM.

For `CN(c1ccccc1)C(c1ccccc1)C(O)c1ccccc1` (centres undefined), the outcome was inactive.

Take `N#Cc1ccccc1CSc1ncnc2nc[nH]c12`: the concentration for a half-maximal effect (EC50) was 12.3 µM and the IC50 worked out at 105 µM.

As for `Cc1cc(O)c(/C=N/C(=S)NCc2ccccc2)c(=O)o1`, the EC50 was over 200 µM and the IC50 is over 200 µM.

Turning to `O=C1COC(c2ccccc2O)=NN1CCCN1CCCC1`, the EC50 is over 525 µM and the IC50 amounted to 372 µM.

`O=C(Nn1c(-c2ccccc2)nc2ccccc2c1=O)c1ccc(Cl)cc1`: the EC50 was over 200 µM and the IC50 worked out at 120 µM.

Consider `Cc1ccc(-n2cnc3c(N/N=C4\SCC(=O)N4c4ccccc4)ncnc32)cc1`, for which the outcome was inactive.

For `CN1C(=O)C2(C#N)C(C)(C)C2(C#N)C1=O` (centres undefined), the EC50 was over 200 µM and the half-maximal inhibitory concentration (IC50) is over 200 µM.

Turning to `O=C(O)CN1C(=O)CN=C(c2ccccn2)c2cc(Cl)ccc21`, the EC50 is over 759 µM and the 50% inhibitory concentration (IC50) was over 759 µM.

For `C=CCOCn1ccc(NC(=O)c2ccccc2)nc1=O`, the EC50 is over 200 µM and the half-maximal inhibitory concentration (IC50) was over 200 µM.

Turning to `O=C1/C(=C\c2ccccc2)c2ccccc2N1/N=C\c1ccccc1`, the EC50 is over 30.9 µM and the IC50 was over 30.9 µM.

As to `CSc1cc(C(=O)Nc2ccc(C3=NCCN3)cc2)ccc1C(=O)Nc1ccc(C2=NCCN2)cc1`, the EC50 is over 141 µM and the IC50 came out at 72.4 µM.

Consider `CNC(=O)N1CN(c2ccccc2)C2(CCN(CCCC3(c4ccc(F)cc4)OCCO3)CC2)C1=O`, for which the EC50 is over 200 µM and the half-maximal inhibitory concentration (IC50) turned out to be 38.9 µM.

Regarding `OCc1ccc2c(c1)CC1(Cc3ccc(/C=N/O)cc3C1)C2` (centres undefined), the EC50 was over 200 µM and the half-maximal inhibitory concentration (IC50) was 0.891 µM.

Take `CCOC(=O)C1=C(SC)SC(C(=O)OCC)C2C=C(C)C=CN12` (centres undefined): the EC50 was over 102 µM and the IC50 stood at 45.7 µM.

As to `CN1N=C(c2ccccc2)C(C(c2ccccc2[N+](=O)[O-])C2C(=O)N(C)N=C2c2ccccc2)C1=O` (centres undefined), the EC50 is over 81.3 µM and the IC50 came to 15.8 µM.

Turning to `COc1ccccc1N1C(=O)CSC1=Nc1ccccc1`, the EC50 is over 112 µM and the 50% inhibitory concentration (IC50) is over 112 µM.

`CC(C)N(C=C(C#N)C#N)C(C)C`: the EC50 is over 200 µM and the 50% inhibitory concentration (IC50) is over 200 µM.

Regarding `COC(F)(F)C12CC3CC(CC(C3)C1)C2`, the outcome was inactive.

As to `CN(C)C(=O)Nc1c([N+](=O)[O-])cc(C(F)(F)F)cc1[N+](=O)[O-]`, the result was inactive.

With `CNC(=O)C(C)Oc1ccc(OCC2CCCCC2)cc1` (centres undefined), the EC50 is over 170 µM and the IC50 is 30.2 µM.

With `CCCc1cc(=O)oc2c3c(cc(OS(=O)(=O)c4ccc(C)cc4)c12)O[C@H](C)[C@H](C)C3=O`, the EC50 was over 151 µM and the IC50 was found to be 95.5 µM.

On to `COc1ccc(C23C(=O)c4ccccc4N2O[C@H]2C(=O)N(c4ccccc4)C(=O)[C@H]23)cc1` (some centres undefined), for which the EC50 is over 31.6 µM and the concentration for half-maximal inhibition (IC50) is over 31.6 µM.

As to `COc1cc(C2C(C(=O)Nc3ccccc3C)=C(C)NC(C)=C2C(=O)Nc2ccccc2C)ccc1O`, the EC50 was over 363 µM and the IC50 was over 200 µM.

On to `CC/C(Cl)=N\OC(=O)Nc1ccc(F)cc1F`, for which the EC50 is over 20 µM and the half-maximal inhibitory concentration (IC50) was found to be 3.47 µM.

On to `O=C(N/N=C\c1ccc([N+](=O)[O-])cc1)c1ccccc1Nc1ccccc1C(=O)N/N=C/c1ccc([N+](=O)[O-])cc1`, for which the EC50 was 91.2 µM and the IC50 was over 200 µM.

For the compound `CC(C)(C)[Si](C)(C)OCC1OC(n2cnc3c(=O)[nH]c(N)nc32)C(O[Si](C)(C)C(C)(C)C)C1O[Si](C)(C)C(C)(C)C` (centres undefined), the EC50 is over 200 µM and the half-inhibitory concentration (IC50) stood at 4.17 µM.

Regarding `Cc1cc(=O)[nH]c(NNC(C#N)c2c(O)ccc3ccccc23)n1` (centres undefined), the EC50 was over 16.2 µM and the 50% inhibitory concentration (IC50) came to 1.07 µM.

As for `N[C@H](CSSC[C@@H](N)C(=O)Nc1ccc2ccccc2c1)C(=O)Nc1ccc2ccccc2c1`, the EC50 is over 200 µM; the IC50 is 2.75 µM and 3.55 µM.

With `CCC(=O)NC(Nc1cc(C)on1)(C(F)(F)F)C(F)(F)F`, the EC50 was over 200 µM and the IC50 was over 200 µM.

As to `CN(C)CC1CCC(CN(C)C)C(=O)C1=O` (centres undefined), the EC50 is over 200 µM and the IC50 was 0.49 µM.

As to `N#Cc1c(N2CCCC2)[nH]c(=O)[nH]c1=S`, the EC50 is over 200 µM and the IC50 was over 200 µM.

With `Nc1ccn(C2CSC(CO)CO2)c(=O)n1` (centres undefined), the EC50 is over 513 µM and the IC50 turned out to be 407 µM.

Take `COc1ccccc1/C=C/c1ccc2ccccc2n1`: the EC50 is over 200 µM and the half-maximal inhibitory concentration (IC50) stood at 38 µM.

Take `CC(/C=C/c1ccccc1Cl)=N\C(=S)NC(N)=S`: the EC50 is over 200 µM and the IC50 was determined as 20.9 µM.

`O=C(Nc1ccccc1)c1c(O)[nH]c(=O)[nH]c1=O`: the EC50 is over 75.9 µM and the IC50 was determined as 38.9 µM.

As to `c1ccc(OP2(Oc3ccccc3)=NP(Oc3ccccc3)(Oc3ccccc3)=NP(Oc3ccccc3)(Oc3ccccc3)=NP(Oc3ccccc3)(Oc3ccccc3)=N2)cc1`, the EC50 is over 100 µM and the IC50 is over 100 µM.

In the case of `[N-]=[N+]=CC(=O)OC1CCc2ccccc21` (centres undefined), the EC50 was over 200 µM and the 50% inhibitory concentration (IC50) was over 200 µM.

Regarding `O=C1c2ccccc2C2C1C(c1ccccc1)C1(Cc3ccccc3C1=O)C2c1ccccc1` (centres undefined), the EC50 was over 200 µM and the IC50 stood at 38.9 µM.
